What was measured:
[1] = spinal anesthesia with bupivacaine; cited from earlier work
[2] = reversal of the local anesthesia effect by applying ondansetrone to the same soft tissue area; type: in vivo; conditions: ondansetrone applied to the same area where local anesthesia is applied; dose according to patient and to type and dosage of local anesthetic
Excerpt: Invention is about the reversal of the effect of the local anesthetic applied to the soft tissue, in a short time period by applying ondansetrone, which is a 5-hydroxytriptamine (5-HT3) antagonist, to the same area. And it is also about the removal of the problems encountered by local anesthesia.
Anesthesia implementations can be classified as local anesthesia, regional anesthesia and general anesthesia. Local anesthesia is the temporarily blockage of carrying the painful stimulations by nerve tracks. Only the surgery area is anesthetized with the local anesthesia. […] Local anesthesia effect can last from as few hours up to five hours. During that period, the problems that patient has to face because of being effected by local anesthesia are described in detail in the prior art section. The solution of these problems is reversal of the effect of the local anesthesia by the doctor in a short time after finishing the operation. Because of the effects of the local anesthetics can take hours to be removed by their selves. In the studies of mine about reversal of that local anesthesia effect, ondansetrone, which is a 5-hidroksitriptamin (5-HT3) antagonist, is implemented to the same area according to patient's situation (age, weight, sensitivity etc.) and to type and dosage of local anesthetic were local anesthesia is applied. […]

[3] = cited from earlier work

| SMILES | reversal of the sensorial block [1] | reversal of the effect of the local anesthetic [2] | regression of the sensorial block level ([3]; subarachnoid anesthesia by lidocaine) | effect on sensorial block level ([3]; subarachnoid anesthesia by ropivacaine) |
| --- | --- | --- | --- | --- |
| CN1C2CCCC1CC(NC(=O)c1nn(C)c3ccccc13)C2 (stereo not shown) [granisetron] | accelerates the reversal of the sensorial block |  |  |  |
| Cc1nccn1CC1CCc2c(c3ccccc3n2C)C1=O (stereo not shown) [ondansetrone] |  | antagonizes the effect of the local anesthetic in a short time (a few minutes) | accelerates the regression of the sensorial block level | no effect in sensorial block level |

Source: patent US20160310467A1, “ONDANSETRONE TO REVERSAL OF THE SOFT TISSUE ANESTHESIA” (priority 2015, published 2016)
